Laboratory results as given in ChEMBL document CHEMBL5321295, “Targeted Degradation of Alpha-Synuclein by Autophagosome-Anchoring Chimera Peptides” (J Med Chem, 2023).
Activity calls are given as the source filed them. The rule behind the calls is not given here. Residues, ends and D or L forms follow the SMILES beside them. *: point of attachment. RhodamineB = CCN(CC)c1ccc2c(-c3ccccc3C(=O)*)c3ccc(=[N+](CC)CC)cc-3oc2c1

Columns and labels:
[1] = Chemical stability of compound in cell culture medium at 50 uM measured for 24 hrs by HPLC analysis; type: physicochemical
SH-SY5Y = experiment: Cytotoxicity against wild-type human SH-SY5Y cells assessed as cell viability upto 200 uM incubated for 24 hrs by CCK8 assay; type: functional, cell-based
[2] = molecular target: T1, Microtubule-associated protein 1 light chain 3 beta (Homo sapiens, UniProt Q9GZQ8); experiment: Binding affinity to biotinylated recombinant LC3B (unknown origin) assessed as dissociation constant by BLI assay
Alpha-synuclein [3] = molecular target: T2, Alpha-synuclein (Homo sapiens, UniProt P37840); experiment: Binding affinity to biotinylated recombinant alpha-synuclein (unknown origin) assessed as dissociation constant by BLI assay
Alpha-synuclein [4] = molecular target: T2, Alpha-synuclein; experiment: Induction of alpha-synuclein (unknown origin) degradation overexpressed in HEK293T cells infected with adenovirus expressing mCherry-EGFP-LC3B incubated for 24 hrs by immunoblot analysis; type: cell-based; conditions: for Activity: dose <= 200.0 µM
HEK-293T = experiment: Cytotoxicity against wild-type HEK293T cells assessed as cell viability upto 200 uM incubated for 24 hrs by CCK8 assay; type: toxicity, cell-based; conditions: human
Alpha-synuclein [5] = molecular target: T2, Alpha-synuclein; experiment: Induction of alpha-synuclein (unknown origin) degradation overexpressed in HEK293T cells at 50 to 100 uM incubated for 24 hrs by immunoblot analysis; type: cell-based; conditions: dose 50-100 µM
[6] = molecular target: T1, Microtubule-associated protein 1 light chain 3 beta; experiment: Binding affinity to EGFP-fused LC3B (unknown origin) overexpressed in HEK293T cells at 50 uM incubated for 2 hrs by confocal laser scanning microscopy; type: cell-based
[7] = Drug uptake in wild-type HEK293T cells assessed as drug penetration upto 50 uM incubated for 2 hrs by confocal laser scanning microscopy; type: ADME, cell-based; conditions: human, hek-293t
Alpha-synuclein [8] = molecular target: T2, Alpha-synuclein; experiment: Induction of EGFP-fused alpha-synuclein (unknown origin) degradation overexpressed in HEK293T cells at 50 uM incubated for 2 hrs by confocal laser scanning microscopy; type: cell-based
[9] = Drug localization in HEK293T cells assessed as colocalization of lysosomes at 50 uM incubated for 2 hrs by LyTG staining based confocal laser scanning microscopy; type: ADME, cell-based; conditions: human, hek-293t
[10] = Drug uptake in wild-type HEK293T cells assessed as drug penetration at 50 uM incubated upto 4 hrs by flow cytometry; type: ADME, cell-based; conditions: human, hek-293t
[11] = Drug uptake in wild-type HEK293T cells assessed as drug penetration upto 100 uM incubated for 2 hrs by flow cytometry; type: ADME, cell-based; conditions: human, hek-293t

| SMILES | Stability [1] | Activity (SH-SY5Y) | DC50 (Alpha-synuclein [4]) [µM] | Activity (Alpha-synuclein [4]) | Activity (HEK-293T) | also measured |
| --- | --- | --- | --- | --- | --- | --- |
| CC[C@H](C)[C@H](NC(=O)[C@H](CCC(=O)O)NC(=O)[C@@H](NC(=O)[C@H](Cc1ccccc1)NC(=O)[C@H](CO)NC(=O)[C@H](CC(=O)O)NC(=O)[C@H](CCC(=O)O)NC(=O)[C@H](CO)NC(=O)[C@H](CO)NC(=O)CNC(=O)[C@H](CO)NC(=O)CNC(=O)[C@H](CO)NC(=O)CNC(=O)[C@H](CCCNC(=N)N)NC(=O)[C@@H](NC(=O)[C@H](CCCCN)NC(=O)[C@H](CO)NC(=O)CNC(=O)[C@@H](NC(=O)[C@H](Cc1ccc(O)cc1)NC(=O)[C@H](CC(C)C)NC(=O)[C@@H](NC(=O)CN)C(C)C)C(C)C)[C@@H](C)O)C(C)C)C(=O)N[C@@H](CCCNC(=N)N)C(=O)N[C@@H](CCSC)C(=O)N[C@@H](Cc1ccc(O)cc1)C(=O)NCC(=O)N[C@@H](CCCNC(=N)N)C(=O)N[C@@H](CCCCN)C(=O)N[C@@H](CCCCN)C(=O)N[C@@H](CCCNC(=N)N)C(=O)N[C@@H](CCCNC(=N)N)C(=O)N[C@@H](CCC(N)=O)C(=O)N[C@@H](CCCNC(=N)N)C(=O)N[C@@H](CCCNC(=N)N)C(=O)N[C@@H](CCCNC(=N)N)C(=O)O (H-GVLYVGSKTRGSGSGSSEDSFVEIRMYGRKKRRQRRR-OH) | Stable | inactive | 140 | Dose-Dependent Effect | Non-Toxic | Kd [2]: 17.2 µM; Kd (Alpha-synuclein [3]): 41.6 µM |
| CC(C)C[C@H](NC(=O)[C@@H](NC(=O)CN)C(C)C)C(=O)N[C@@H](Cc1ccc(O)cc1)C(=O)N[C@H](C(=O)NCC(=O)N[C@@H](CO)C(=O)N[C@@H](CCCCN)C(=O)N[C@H](C(=O)N[C@@H](CCCNC(=N)N)C(=O)NCC(=O)N[C@@H](CO)C(=O)NCC(=O)N[C@@H](CO)C(=O)N[C@@H](CO)C(=O)NCC(=O)NCC(=O)N[C@@H](CC(=O)O)C(=O)N[C@@H](CC(=O)O)C(=O)N[C@@H](CC(=O)O)C(=O)N[C@@H](Cc1c[nH]c2ccccc12)C(=O)N[C@H](C(=O)N[C@@H](Cc1c[nH]cn1)C(=O)N[C@H](C(=O)N[C@@H](CO)C(=O)N[C@@H](CO)C(=O)N[C@@H](Cc1ccc(O)cc1)C(=O)NCC(=O)N[C@@H](CCCNC(=N)N)C(=O)N[C@@H](CCCCN)C(=O)N[C@@H](CCCCN)C(=O)N[C@@H](CCCNC(=N)N)C(=O)N[C@@H](CCCNC(=N)N)C(=O)N[C@@H](CCC(N)=O)C(=O)N[C@@H](CCCNC(=N)N)C(=O)N[C@@H](CCCNC(=N)N)C(=O)N[C@@H](CCCNC(=N)N)C(=O)O)C(C)C)[C@@H](C)O)[C@@H](C)O)C(C)C (H-GVLYVGSKTRGSGSSGGDDDWTHVSSYGRKKRRQRRR-OH) |  |  |  |  |  | Activity (Alpha-synuclein [5]): inactive |
| CC(C)C[C@H](NC(=O)CNC(=O)[C@H](Cc1ccc(O)cc1)NC(=O)[C@@H](N)C(C)C)C(=O)N[C@@H](CCCNC(=N)N)C(=O)NCC(=O)N[C@H](C(=O)N[C@@H](CO)C(=O)N[C@H](C(=O)N[C@@H](CCCCN)C(=O)NCC(=O)N[C@@H](CO)C(=O)NCC(=O)N[C@@H](CO)C(=O)N[C@@H](CO)C(=O)NCC(=O)NCC(=O)N[C@@H](CC(=O)O)C(=O)N[C@@H](CC(=O)O)C(=O)N[C@@H](CC(=O)O)C(=O)N[C@@H](Cc1c[nH]c2ccccc12)C(=O)N[C@H](C(=O)N[C@@H](Cc1c[nH]cn1)C(=O)N[C@@H](CC(C)C)C(=O)N[C@@H](CO)C(=O)N[C@@H](CO)C(=O)N[C@@H](Cc1ccc(O)cc1)C(=O)NCC(=O)N[C@@H](CCCNC(=N)N)C(=O)N[C@@H](CCCCN)C(=O)N[C@@H](CCCCN)C(=O)N[C@@H](CCCNC(=N)N)C(=O)N[C@@H](CCCNC(=N)N)C(=O)N[C@@H](CCC(N)=O)C(=O)N[C@@H](CCCNC(=N)N)C(=O)N[C@@H](CCCNC(=N)N)C(=O)N[C@@H](CCCNC(=N)N)C(=O)O)[C@@H](C)O)[C@@H](C)O)C(C)C (H-VYGLRGVSTKGSGSSGGDDDWTHLSSYGRKKRRQRRR-OH) |  |  |  |  |  | Activity (Alpha-synuclein [5]): inactive |
| CC[C@H](C)[C@H](NC(=O)[C@H](Cc1ccc(O)cc1)NC(=O)[C@H](CC(=O)O)NC(=O)[C@H](CCC(=O)O)NC(=O)[C@H](CO)NC(=O)[C@H](CO)NC(=O)[C@H](C)NC(=O)[C@H](CO)NC(=O)[C@H](CO)NC(=O)CNC(=O)[C@H](CO)NC(=O)CNC(=O)[C@H](CCCNC(=N)N)NC(=O)[C@@H](NC(=O)[C@H](CCCCN)NC(=O)[C@H](CO)NC(=O)CNC(=O)[C@@H](NC(=O)[C@H](Cc1ccc(O)cc1)NC(=O)[C@H](CC(C)C)NC(=O)[C@@H](NC(=O)CN)C(C)C)C(C)C)[C@@H](C)O)C(=O)N[C@H](C(=O)N[C@H](C(=O)N[C@@H](CC(C)C)C(=O)N1CCC[C@H]1C(=O)N[C@@H](Cc1ccc(O)cc1)C(=O)NCC(=O)N[C@@H](CCCNC(=N)N)C(=O)N[C@@H](CCCCN)C(=O)N[C@@H](CCCCN)C(=O)N[C@@H](CCCNC(=N)N)C(=O)N[C@@H](CCCNC(=N)N)C(=O)N[C@@H](CCC(N)=O)C(=O)N[C@@H](CCCNC(=N)N)C(=O)N[C@@H](CCCNC(=N)N)C(=O)N[C@@H](CCCNC(=N)N)C(=O)O)[C@@H](C)CC)[C@@H](C)CC (H-GVLYVGSKTRGSGSSASSEDYIIILPYGRKKRRQRRR-OH) | Stable | inactive | 73.8 | Dose-Dependent Effect | Non-Toxic | Kd [2]: 15.2 µM; Kd (Alpha-synuclein [3]): 25.3 µM |
| CC(C)C[C@H](NC(=O)[C@H](Cc1c[nH]cn1)NC(=O)[C@@H](NC(=O)[C@H](Cc1c[nH]c2ccccc12)NC(=O)[C@H](CC(=O)O)NC(=O)[C@H](CC(=O)O)NC(=O)[C@H](CC(=O)O)NC(=O)CNC(=O)CNC(=O)[C@H](CO)NC(=O)[C@H](CO)NC(=O)CNC(=O)[C@H](CO)NC(=O)CNC(=O)[C@H](CCCNC(=N)N)NC(=O)[C@@H](NC(=O)[C@H](CCCCN)NC(=O)[C@H](CO)NC(=O)CNC(=O)[C@@H](NC(=O)[C@H](Cc1ccc(O)cc1)NC(=O)[C@H](CC(C)C)NC(=O)[C@@H](NC(=O)CN)C(C)C)C(C)C)[C@@H](C)O)[C@@H](C)O)C(=O)N[C@@H](CO)C(=O)N[C@@H](CO)C(=O)N[C@@H](CCCNC(=N)N)C(=O)N[C@@H](CCCNC(=N)N)C(=O)N[C@@H](CCCNC(=N)N)C(=O)N[C@@H](CCCNC(=N)N)C(=O)N[C@@H](CCCNC(=N)N)C(=O)N[C@@H](CCCNC(=N)N)C(=O)N[C@@H](CCCNC(=N)N)C(=O)O (H-GVLYVGSKTRGSGSSGGDDDWTHLSSRRRRRRR-OH) | Stable | inactive | 56.8 | Dose-Dependent Effect | Non-Toxic |  |
| CCN(CC)c1ccc2c(-c3ccccc3C(=O)NCC(=O)N[C@H](C(=O)N[C@@H](CC(C)C)C(=O)N[C@@H](Cc3ccc(O)cc3)C(=O)N[C@H](C(=O)NCC(=O)N[C@@H](CO)C(=O)N[C@@H](CCCCN)C(=O)N[C@H](C(=O)N[C@@H](CCCNC(=N)N)C(=O)NCC(=O)N[C@@H](CO)C(=O)NCC(=O)N[C@@H](CO)C(=O)N[C@@H](CO)C(=O)NCC(=O)NCC(=O)N[C@@H](CC(=O)O)C(=O)N[C@@H](CC(=O)O)C(=O)N[C@@H](CC(=O)O)C(=O)N[C@@H](Cc3c[nH]c4ccccc34)C(=O)N[C@H](C(=O)N[C@@H](Cc3c[nH]cn3)C(=O)N[C@@H](CC(C)C)C(=O)N[C@@H](CO)C(=O)N[C@@H](CO)C(=O)N[C@@H](Cc3ccc(O)cc3)C(=O)NCC(=O)N[C@@H](CCCNC(=N)N)C(=O)N[C@@H](CCCCN)C(=O)N[C@@H](CCCCN)C(=O)N[C@@H](CCCNC(=N)N)C(=O)N[C@@H](CCCNC(=N)N)C(=O)N[C@@H](CCC(N)=O)C(=O)N[C@@H](CCCNC(=N)N)C(=O)N[C@@H](CCCNC(=N)N)C(=O)N[C@@H](CCCNC(=N)N)C(=O)O)[C@@H](C)O)[C@@H](C)O)C(C)C)C(C)C)c3ccc(=[N+](CC)CC)cc-3oc2c1.[Cl-] (RhodamineB-GVLYVGSKTRGSGSSGGDDDWTHLSSYGRKKRRQRRR-OH) |  |  |  |  |  | Activity [6]: Active; Drug uptake [7]: Active; Activity (Alpha-synuclein [8]): Active; Drug uptake [9]: Active; Drug uptake [10]: Active; Drug uptake [11]: Active |
| CCN(CC)c1ccc2c(-c3ccccc3C(=O)NCC(=O)N[C@H](C(=O)N[C@@H](CC(C)C)C(=O)N[C@@H](Cc3ccc(O)cc3)C(=O)N[C@H](C(=O)NCC(=O)N[C@@H](CO)C(=O)N[C@@H](CCCCN)C(=O)N[C@H](C(=O)N[C@@H](CCCNC(=N)N)C(=O)NCC(=O)N[C@@H](CO)C(=O)NCC(=O)N[C@@H](CO)C(=O)N[C@@H](CO)C(=O)NCC(=O)NCC(=O)N[C@@H](CC(=O)O)C(=O)N[C@@H](CC(=O)O)C(=O)N[C@@H](CC(=O)O)C(=O)N[C@@H](Cc3c[nH]c4ccccc34)C(=O)N[C@H](C(=O)N[C@@H](Cc3c[nH]cn3)C(=O)N[C@@H](CC(C)C)C(=O)N[C@@H](CO)C(=O)N[C@@H](CO)C(=O)N[C@@H](CCCNC(=N)N)C(=O)N[C@@H](CCCNC(=N)N)C(=O)N[C@@H](CCCNC(=N)N)C(=O)N[C@@H](CCCNC(=N)N)C(=O)N[C@@H](CCCNC(=N)N)C(=O)N[C@@H](CCCNC(=N)N)C(=O)N[C@@H](CCCNC(=N)N)C(=O)O)[C@@H](C)O)[C@@H](C)O)C(C)C)C(C)C)c3ccc(=[N+](CC)CC)cc-3oc2c1.[Cl-] (RhodamineB-GVLYVGSKTRGSGSSGGDDDWTHLSSRRRRRRR-OH) |  |  |  |  |  | Drug uptake [7]: Active; Drug uptake [11]: Active |
